# Experimental data taken from patent publication US20030152515A1, “Method for estimating effective regimens and patient survival rates of antibiotic treatments for fatal infectious diseases” (priority 2002, published 2003).
# “Also recorded” adds a separate entry of the source.
# How the values were obtained:
# [1] = system: gram positive and negative organisms; settings: cited from earlier work
# inhalational anthrax = settings: human, in vivo; cited from earlier work
# anthrax = assay: microbe, parasite or virus in culture; format: cell-based; settings: Bacillus anthracis, read-out: MIC against anthrax, mid point adopted in the analyses
# Bacillus anthracis = settings: rhesus monkey, in vivo; cited from earlier work
smiles,measurement,setting,value
O=C(O)c1cn(C2CC2)c2cc(N3CCNCC3)c(F)cc2c1=O [ciprofloxacin],MIC range of organisms in the literature study,[1],0.008−0.4 μg/mL
same,overall survival,inhalational anthrax,55%
same,MIC,anthrax,0.07 µg/mL
same,protection from the disease while on therapy,Bacillus anthracis,sufficient protection; also recorded: adequately protected
same,survival rate,Bacillus anthracis,90%
